In assay [1] the target is T1, human CB2 receptor (Homo sapiens (Human), UniProt P34972). Nature of the assay: CB2 receptor binding assay ([3H]CP-55,940 displacement, HEK-293 membranes).
In assay [2] the target is human recombinant CB1R (Homo sapiens (Human), UniProt P21554). Nature of the assay: CB1 receptor binding assay ([3H]CP-55,940 displacement, HEK-293 membranes). As to conditions: membranes of HEK-293 cells with human recombinant CB1R, [3H]CP-55,940, read-out: CB1 IC50. Summed up:
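Displacement of [3H]CP-55,940 was measured on human CB1R- or CB2R-transfected HEK-293 membranes after 120 min at 37 °C, in duplicate, with filtration and scintillation counting. For CB2R, incubation used Tris-HCl 50 mM, MgCl2 5 mM, CaCl2 1 mM, BSA 0.2%, pH 7.4. Ki values were derived from variable-slope IC50 fits using Cheng–Prusoff.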

Assay [3] deals with T1, human CB2 receptor. Nature of the assay: CB2 receptor cAMP assay (DiscoverX HitHunter cAMP XS+). It counts as cell-based. Summed up:
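CHO-K1 cells expressing human CB2, HitHunter cAMP XS+ chemiluminescence. Agonist mode with EC80 forskolin, inverse agonist with EC20 forskolin, antagonist mode by compound preincubation 30 min then EC80 agonist plus EC80 forskolin; 30 or 60 min at 37 °C or RT, 1% vehicle. IC50 from variable-slope fit.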

The mark [4] stands for this setting: membranes of HEK-293 cells with human recombinant CB2R, [3H]CP-55,940, read-out: CB2 IC50.
The mark [5] stands for this setting: cAMP Hunter CHO-K-1 cells expressing human CB2 receptor, read-out: cAMP IC50.
[6] abbreviates: CHO-K1, read-out: Max Stimulation %.
Where [7] appears, read: membranes of HEK-293 cells with human recombinant CB2R, [3H]CP-55,940, class symbols, read-out: CB2 IC50.

As a reminder, the IC50 is the concentration at which inhibition is half-maximal.

Where two headings read alike, the source gives them in different places. Bounds are passed on as bounds.

human recombinant CB1R, sequence (P21554 whole entry): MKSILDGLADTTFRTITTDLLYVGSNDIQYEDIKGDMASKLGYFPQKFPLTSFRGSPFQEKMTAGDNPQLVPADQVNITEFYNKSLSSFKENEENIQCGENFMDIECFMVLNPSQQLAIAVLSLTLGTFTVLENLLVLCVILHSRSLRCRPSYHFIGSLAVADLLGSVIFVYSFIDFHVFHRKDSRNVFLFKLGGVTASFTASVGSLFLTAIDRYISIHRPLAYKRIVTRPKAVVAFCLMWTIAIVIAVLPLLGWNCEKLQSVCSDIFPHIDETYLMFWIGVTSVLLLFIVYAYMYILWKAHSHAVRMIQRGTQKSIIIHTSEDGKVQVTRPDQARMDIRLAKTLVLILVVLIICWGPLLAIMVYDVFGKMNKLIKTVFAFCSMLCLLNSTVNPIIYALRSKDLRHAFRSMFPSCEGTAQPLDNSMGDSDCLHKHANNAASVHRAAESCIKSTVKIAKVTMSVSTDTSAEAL
T1 sequence (P34972 whole entry): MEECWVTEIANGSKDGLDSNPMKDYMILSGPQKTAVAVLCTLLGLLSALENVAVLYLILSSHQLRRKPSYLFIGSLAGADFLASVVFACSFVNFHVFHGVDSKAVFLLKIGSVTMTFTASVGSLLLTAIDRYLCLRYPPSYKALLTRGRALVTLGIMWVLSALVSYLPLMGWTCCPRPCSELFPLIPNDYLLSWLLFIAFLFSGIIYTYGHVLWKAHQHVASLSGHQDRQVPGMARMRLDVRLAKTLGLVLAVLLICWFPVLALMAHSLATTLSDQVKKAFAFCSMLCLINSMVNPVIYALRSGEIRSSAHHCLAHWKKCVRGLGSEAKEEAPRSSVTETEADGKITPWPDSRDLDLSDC

Consider `C[C@@H](NC(=O)c1cc2cc(-c3ccc(OC(F)F)cn3)cnc2n(CCN2CCOCC2)c1=O)c1ccc(F)cc1` [Compound 48, (R)-6-(5-(difluoromethoxy)pyridin-2-yl)-N-(1-(4-fluorophenyl)ethyl)-1-(2-morpholinoethyl)-2-oxo-1,2-dihydro-1,8-naphthyridine-3-carboxamide], for which the IC50 in assay [1] (setting [4]) was 4.5 nM; in assay [2], greater than 10000 nM; in assay [3] (setting [5]), 0.2 nM. In addition, the Emax in assay [3] (CHO-K1, cAMP Hunter CHO-K-1 cells expressing human CB2 receptor, read-out: Max Stimulation %) was 66%.

Regarding `N#Cc1ccc(-c2cnc3c(c2)cc(C(=O)NC2(c4ccc(F)cc4)CC2)c(=O)n3CCN2CCOCC2)nc1` [Compound 42, 6-(5-cyanopyridin-2-yl)-N-(1-(4-fluorophenyl)cyclopropyl)-1-(2-morpholinoethyl)-2-oxo-1,2-dihydro-1,8-naphthyridine-3-carboxamide], the IC50 in assay [1] (setting [4]) was 23 nM; in assay [2], greater than 10000 nM; in assay [3] it was 14 nM. For the same molecule, in assay [3] (setting [6]), the Emax came to 73%.

`O=C(NC1CC2(CCC2)C1)c1c(O)c2cc(-c3ccc(F)cc3)cnc2n(CCN2CCOCC2)c1=O` [Compound 6, 6-(4-fluorophenyl)-4-hydroxy-1-(2-morpholinoethyl)-2-oxo-N-(spiro[3.3]heptan-2-yl)-1,2-dihydro-1,8-naphthyridine-3-carboxamide]: the IC50 in assay [1] (setting [4]) is 6.1 nM; in assay [2], greater than 10000 nM; in assay [3] (setting [5]), greater than 1000 nM.

For the molecule `C[C@@H](NC(=O)c1cc2cc(C3CC3)cnc2n(Cc2ccc(F)cc2)c1=O)c1ccc(C#N)cc1` [Compound 95, (R)—N-(1-(4-cyanophenyl)ethyl)-6-cyclopropyl-1-(4-fluorobenzyl)-2-oxo-1,2-dihydro-1,8-naphthyridine-3-carboxamide], the figures for the IC50 in assay [1] (setting [4]), in assay [2] and in assay [3] were 3.2 nM, 895 nM and 2 nM, respectively. The Emax in assay [3] (setting [6]) turned out to be 60%.

For `CC1CCC(NC(=O)c2c(O)c3cc(-c4ccc(OC(F)F)cc4)cnc3n(CCN3CCOCC3)c2=O)CC1` (stereo not drawn) [Compound 15, 6-(4-(difluoromethoxy)phenyl)-4-hydroxy-N-(4-methylcyclohexyl)-1-(2-morpholinoethyl)-2-oxo-1,2-dihydro-1,8-naphthyridine-3-carboxamide], the concentration for half-maximal inhibition (IC50) in assay [1] (setting [4]) was 8.8 nM; in assay [2], greater than 10000 nM; in assay [3], 21 nM. Also, the Emax in assay [3] (setting [6]) was 75%.

For the molecule `CC1CCC(NC(=O)c2cc3cc(Br)cnc3n(CCN3CCOCC3)c2=O)CC1` (stereo not drawn) [Compound 61, 6-bromo-N-(4-methylcyclohexyl)-1-(2-morpholinoethyl)-2-oxo-1,2-dihydro-1,8-naphthyridine-3-carboxamide], the IC50 was less than 100 nM in assay [1] (setting [7]), greater than 1000 nM in assay [2] (class symbols) and 13 nM in assay [3]. Besides, the Emax in assay [3] (setting [6]) is 83%.

Consider `CC1CCC(NC(=O)c2c(O)c3cc(-c4ccc5c(c4)OCCO5)cnc3n(CCN3CCOCC3)c2=O)CC1` (stereo not drawn) [Compound 19, 6-(2,3-dihydrobenzo[b][1,4]dioxin-6-yl)-4-hydroxy-N-(4-methylcyclohexyl)-1-(2-morpholinoethyl)-2-oxo-1,2-dihydro-1,8-naphthyridine-3-carboxamide], for which the IC50 in assay [1] (setting [4]) was 20 nM; in assay [2], greater than 10000 nM; in assay [3] it was 43 nM. For the same molecule, in assay [3] (setting [6]), the Emax turned out to be 81%.

For the molecule `O=C(NC1CC2(CCC2)C1)c1cc2cc(C3COC3)cnc2n(Cc2ccc(F)cc2)c1=O` [Compound 102, 1-(4-fluorobenzyl)-6-(oxetan-3-yl)-2-oxo-N-(spiro[3.3]heptan-2-yl)-1,2-dihydro-1,8-naphthyridine-3-carboxamide], the values for the IC50 in assay [1] (setting [4]), in assay [2] and in assay [3] were 2.3 nM, 1610 nM and 3 nM, respectively. Moreover, the Emax in assay [3] (setting [6]) stood at 79%.

With `O=C(NC12CC(C1)C2)c1cc2cc(Br)cnc2n(Cc2ccc(F)cc2)c1=O` [Compound 82, N-(bicyclo[1.1.1]pentan-1-yl)-6-bromo-1-(4-fluorobenzyl)-2-oxo-1,2-dihydro-1,8-naphthyridine-3-carboxamide], the IC50 in assay [1] (setting [7]) is less than 100 nM; in assay [2] (class symbols) it was greater than 1000 nM; in assay [3], 1 nM. Besides, the Emax in assay [3] (setting [6]) is 86%.

Turning to `O=C(NC1CC2(CCC2)C1)c1c(O)c2cc(-c3ccc(Cl)cc3)cnc2n(CCN2CCOCC2)c1=O` [Compound 11, 6-(4-chlorophenyl)-4-hydroxy-1-(2-morpholinoethyl)-2-oxo-N-(spiro[3.3]heptan-2-yl)-1,2-dihydro-1,8-naphthyridine-3-carboxamide], the IC50 was 100 to 999 nM in assay [1], greater than 1000 nM in assay [2] (class symbols) and 81 nM in assay [3]. For the same molecule, in assay [3] (setting [6]), the Emax is 60%.

For the origin of these results see patent US11564928B1, “Cannabinoid receptor type 2 (CB2) modulators and uses thereof” (Teon Therapeutics, Inc., priority 2020, dated 2023).
